Source: US20230165865A1, “HETEROARYLDIHYDROPYRIMIDINE DERIVATIVES AND METHODS OF TREATING HEPATITIS B INFECTIONS” (Janssen Pharmaceutica NV, priority 2018, published 2023)
pEC50: −log10 of the molar value. Like-named read-outs stand apart in the source and are kept apart here.

Experiments:
HepG2.2.15 cells = assay: Cytotoxicity determination in HepG2.2.15 cells (CCK-8 assay); type: cell-based; settings: 6 days treatment, CCK-8, highest concentration 100 uM
Summary of the method: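 HepG2.2.15 cells (5,000/well, 2% FBS medium) were treated for 6 days, with medium and compound refreshed at day 3. Dosing was an 8-point 1:3 series from 100 uM, in triplicate. Viability was measured by CCK-8 after 2.5 h at 37 °C (A450, 630 nm reference), and CC50 was calculated.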

[1] = Pharmacokinetic study after intravenous and oral administration in male SD rats; type: in vivo; settings: for clearance / Cmax: male, SD; for clearance / Cmax / IV AUCinf/Dose / PO AUCinf/Dose / clearance, in words / dose-normalized AUC (AUCinf/Dose), in words: rat plasma; for clearance / IV AUCinf/Dose: IV, nominal 2 mg/kg; for clearance: read-out: IV Cl; for Cmax / PO AUCinf/Dose: PO; for Cmax: nominal 5 mg/kg; for clearance, in words / dose-normalized AUC (AUCinf/Dose), in words / bioavailability (F (%)), in words: comparing with reference 2; for F / bioavailability (F (%)), in words: rat; for F: PO vs IV
Description: Male SD rats with a weight range of 250-300 g (Si Bei Fu Laboratory Animal Technology Co. Ltd, China) were used. Animals were fasted overnight and free access to food 4 hours after dosing.
(§1) Test compound (correction factor: 1.00) was dissolved in a 20% hydroxypropyl-β-cyclodextrin (HP-β-CD) at a final concentration of 1 mg/ml for the intravenous (IV) formulation and at final concentrations of 0.5 mg/ml for the oral (PO) formulation.
The intravenous formulation was dosed at 2 ml/kg to obtain a dose of 2 mg/kg. The oral formulations were dosed at 10 ml/kg to obtain final doses of 5 mg/kg.
Blood samples were taken at 5, 15 and 30 min, 1, 2, 4, 8 and 24 h after intravenous dose administration. Blood samples were taken at 15 and 30 min, 1, 2, 4, 8, 12 and 24 h after oral dose administration.
(§2) Approximately 0.20 mL blood will be collected into BD blood collection tubes containing Sodium Fluoride (NaF), Potassium Oxalate (KoX) and K3-EDTA at each time point. Samples were placed immediately on melting ice and plasma was obtained following centrifugation at 4° C. for 5 minutes at approximately 4000×g. Plasma samples were adjusted to pH 3-4 by phosphoric acid and stored at −75±15° C. prior to analysis. The whole process was completed within 1 hour.
Plasma samples were analyzed using LC-MS/MS methods. The lower limit of quantification (LLOQ) for plasma was 1.0 ng/ml.
A non-compartmental analysis using the “Linear up log down” rule was used for all data. A limited pharmacokinetic analysis was performed using Phoenix™ Professional (Version 6.1). Results: See table 10 below for plasma PK results.

human hepatocytes = assay: Metabolic stability of test compound in human hepatocyte cell; type: in vitro ADME; settings: comparing with reference 1 and reference 2
Description: (§3) • 1. The cryopreserved human hepatocytes cells were thawed in 37° C. water bath and diluted with pre-warmed incubation medium to a working cell density of 1×10^6 viable cells/mL. • 2. The 198 μL pre-warmed hepatocyte suspensions were spiked with 2 μL of 100 μM compound or reference compound(Verapamil) at a final concentration of 1.0 μM in a 96-well plate. The plate was incubated at 37° C., 900 rpm. All incubations will be performed in singlet. • 3. 25 μL aliquots of well contents were collected at time points of 0, 15, 30, 60, 90 and 120 minutes. The reactions were stopped by the addition of 6-fold volumes of cold acetonitrile with internal standards. • 4. After centrifugation for 25 minutes at 3,220 g. Aliquot of 100 μL of the supernatant was mixed with 100 μL of ultra-pure H2O and then used for LC-MS/MS analysis.
(§4) All calculations were carried out using Microsoft Excel. Peak areas were determined from extracted ion chromatograms. Determine the in vitro half-life (t1/2) of parent compound by regression analysis of the percent parent disappearance vs. time curve.
(§5) The in vitro half-life (in vitro t1/2) is determined from the slope value k:
(§6) Conversion of the in vitro t1/2(in min) into the in vitro intrinsic clearance (in vitro CLint, in μL/min/10^6 cells) is done using the following equation:
(§7) V=incubation volume (0.2 mL);
(§8) N=number of hepatocytes per well (0.2×10^6 cells).
(§9) Conversion of the in vitro t1/2(in min) into the scale-up intrinsic clearance (CLint(liver), in mL/min/kg) was done using the following equation:
(§10) CLint(liver)=kV/N×scaling factor

[2] = as above; type: in vitro ADME; settings: cryopreserved human hepatocytes (suspension), human hepatocytes; for half-life at 1 uM: 0-120 min, read-out: T½; for CLint scaled at 1 uM: scale-up intrinsic clearance, scaling factor 2544.3, read-out: Clint (liver)
Description: as §3, §4, §5, §6, §7, §8, §9, §10

HBV = assay: Anti-viral assay in HepG2.2.15 cells: anti-HBV activity, HBV DNA in culture medium by qPCR; type: cell-based; settings: HepG2.2.15 cells, 6 days treatment, HBV DNA by qPCR; read-out: EC50
Summary of the method: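 Cells in 2% FBS medium treated 6 days, compound and medium refreshed at day 3; 8-point 1:3 dilutions in triplicate, top 10 or 1 uM (antiviral) and 100 uM (cytotoxicity). Extracellular viral DNA quantified by qPCR, giving EC50 and CC50.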

[3] = Pharmacokinetic and tissue distribution study via intravenous and oral administration in male C57BL/6 mice; type: in vivo; settings: for Kp: liver and plasma, po
Description: Male C57BL/6 mice with a weight range of 20-25 g (Hua Fu Kang, China) were used. Animals were fasted overnight and free access to food 4 hours after dosing.
as §1, with “formulation. The intravenous formulation was dosed at 2 ml/kg to obtain a dose of 2 mg/kg. The oral formulations were dosed at 10 ml/kg to obtain final doses of 5 mg/kg.” for “formulation.”
Blood samples were taken at 7 and 20 min, 1, 2, 4, 8 and 24 h after intravenous dose administration. Blood and liver samples were taken at 30 min, 1, 2, 4, 8, 12 and 24 h after oral dose administration.
as §2, with “0.020” for “0.20”, “containing” for “containing Sodium Fluoride (NaF), Potassium Oxalate (KoX) and”
Liver samples were collected at adopted time point, and the vial containing the tissues sample was snap-frozen in liquid nitrogen right away and kept at −75±15° C. prior to analysis. All liver samples were weighed and homogenized with phosphoric acid solution (pH to 3-4) by liver weight (g) to phosphoric acid solution volume (mL) ratio 1:4 before analysis.
Plasma and liver samples were analyzed using LC-MS/MS methods. The lower limit of quantification (LLOQ) for plasma was 1.0 ng/ml and for liver was 2.5 ng/g. A non-compartmental analysis using the “Linear up log down” rule was used for all data. A limited pharmacokinetic analysis was performed using Phoenix™ Professional (Version 6.1).

Row | Compound | CC50 (HepG2.2.15 cells) [µM] | clearance [1] [mL/min/kg] | Cmax [1] [ng/mL] | IV AUCinf/Dose [1] [ng·kg·h/mg/mL] | PO AUCinf/Dose [1] [ng·kg·h/mg/mL] | clearance, in words [1] | dose-normalized AUC (AUCinf/Dose), in words [1] | F [1] [%] | bioavailability (F (%)), in words [1] | metabolic stability in human hepatocyte cells, in words (human hepatocytes) | half-life at 1 uM [2] [h] | CLint scaled at 1 uM [2] [mL/min/kg] | pEC50 (HBV) | also measured
1 | COC(=O)C1=C(CN2CCN3C(=S)N(CC(C)(C)C(=O)O)CC3C2)NC(c2nccs2)=NC1c1ccc(F)cc1Cl (single isomer, unassigned) [Compound 4B, 3-(7-((6-(2-chloro-4-fluorophenyl)-5-(methoxycarbonyl)-2-(thiazol-2-yl)-3,6-dihydropyrimidin-4-yl)methyl)-3-thioxohexahydroimidazo[1,5-a]pyrazin-2(3H)-yl)-2,2-dimethylpropanoic acid] | 23.1 | 28.8 | 962 | 594.3 | 336.8 | far slower clearance | over two-folds higher | 56.5 | increased (or equal) bioavailability | improved metabolic stability | > 4.82 | < 6.1 | 8.72 | –
2 | CCOC(=O)C1=C(CN2CCN3C(=S)N(CC(C)(C)C(=O)O)CC3C2)NC(c2nccs2)=NC1c1cccc(F)c1Cl (single isomer, unassigned) [Compound 3B, 3-(7-((6-(2-chloro-3-fluorophenyl)-5-(ethoxycarbonyl)-2-(thiazol-2-yl)-3,6-dihydropyrimidin-4-yl)methyl)-3-thioxohexahydroimidazo[1,5-a]pyrazin-2(3H)-yl)-2,2-dimethylpropanoic acid] | 17.8 | 23.4 | 1180 | 771.6 | 389.2 | far slower clearance | over two-folds higher | 50.3 | increased (or equal) bioavailability | improved metabolic stability | 2.91 | 10.1 | 8.77 | Kp ([3]; male, C57BL/6, mouse, mice, PO, read-out: AUCInf Ratio (Liver/Plasma)): 19.9; Kp ([3]; male, C57BL/6, mouse, mice, PO, read-out: Cmax Ratio (Liver/Plasma)): 15.3; clearance ([3]; male, C57BL/6, mouse, mice plasma, IV, nominal 2 mg/kg, read-out: IV Cl): 20.2 mL/min/kg; Cmax ([3]; male, C57BL/6, mouse, mice plasma, PO, dose per compound in table (5.28-9.95 mg/kg)): 2340 ng/mL; Liver AUCinf/Dose ([3]; mice liver, PO): 20884 ng·kg·h/g/mg; Liver Cmax/Dose ([3]; mice liver, PO): 6624 kg·ng/mg/mL; dose-normalized Cmax and dose-normalized AUCinf in liver, in words ([3]; mice liver, comparing with reference 1 and reference 2): far increased; IV AUCinf/Dose ([3]; mice plasma, IV, nominal 2 mg/kg): 830.9 ng·kg·h/mg/mL; PO AUCinf/Dose ([3]; mice plasma, PO): 1049.3 ng·kg·h/mg/mL; clearance, in words ([3]; mice plasma, comparing with reference 1 and reference 2): far slower clearance; F ([3]; mice, PO vs IV): 126%; bioavailability in plasma, in words ([3]; mice, comparing with reference 1 and reference 2): increased bioavailability
